Test results: patent publication US20240115582A1, “USE OF SODIUM TRANS-[TETRACHLORIDOBIS(1H-INDAZOLE)RUTHENATE(III)] FOR TREATING CANCERS” (Bold Therapeutics Inc., priority 2020, published 2024)

Legend:
BRAFMT CRC cells [1] = assay: Combination of BOLD-100 with ATRi, cell viability (CellTitre-Glo, clonogenic survival); format: cell-based; conditions: in particular in BRAFMT CRC cells
Procedure: FDA approved drug screen targeting the significant pathways deregulated following BOLD-100 treatment in BRAFMT CRC. BRAFMT HT-29 (A) and VACO432 (B) cells were co-treated with BOLD-100, IC10, IC20, IC30 doses of 60 FDA approved drugs alone or in combination with BOLD-100 for 72 h and cell viability determined using the CellTitre-Glo® assay. Robust z-scores were calculated for combination treatment and normalized to effect of 50 μM BOLD-100. Combinations with r-Z score of <−1 were considered to enhance sensitivity to BOLD-100 treatment. Cell viability for combined BOLD-100/AZD6738 treatment was graphed using GraphPad Prism 8.0. C. Clonogenic survival assays in BRAFMT LIM2405, VACO432 and RKO CRC cells following co-treatment with BOLD-100 and AZD6738 for 14 days. Survival was graphed using GraphPad Prism 8.0.

BRAFMT CRC cells [2] = assay: Combination of BOLD-100 with ATRi, apoptosis (PARP/cleaved caspase-3 WB, caspase 3/7 activity, PI flow cytometry); format: cell-based; conditions: for cell death following BOLD-100 treatment: co-treated with BOLD-100 for 48 h, BRAFMT CRC; for apoptosis when combined with BOLD-100: in particular in BRAFMT CRC cells
Procedure: HT-29 and VACO432 CRC cells were co-treated with BOLD-100 and ATRi AZD6738, M4344 or Berzosertib for 48 h and apoptosis was assessed using WB analyses for PARP and cleaved caspase-3 (A) and caspase 3/7 activity assays (B). C. BRAFMT CRC cells VACO432, COL0205 and LIM2405 were co-treated with BOLD-100 and ATRi AZD6738, M4344 or Berzosertib for 48 h and apoptosis assessed by PI flow cytometry.

BRAFMT, MSS CRC cells = assay: CellTitre-Glo and Annexin V/PI sensitivity studies; format: cell-based; conditions: isogenic paired and non-isogenic V600E BRAFMT and BRAFWT panel
Procedure: Materials: A panel of isogenic paired and non-isogenic V600E BRAFMT and BRAFWT cells were used. BOLD-100, a ruthenium-based small molecule inhibitor, was obtained from BOLD Therapeutics. A FDA approved compound library was used.
(§1) Methods: Cell Titre Glo, Annexin V/PI high content screening, Flow Cytometry, Western blotting, Caspase 8, 3/7 activity, ROS-Glo^a H2O2, RNAi assays were used. RNA seq and bioinformatic analyses were performed on BOLD-100-treated BRAFMT/WT CRC cells, using the Illumina Novoseq platform and Reactome Pathway Analysis.
As illustrated in FIG. 2. BRAFMT, CMS1 CRC cells show increased sensitivity to treatment with BOLD-100. Upper: A. BRAFMT V600E HT-29 cells were treated with BOLD-100 for the indicated time and GRP78, CHOP and PARP levels determined by Western blotting (WB). B. HT-29 cells were treated with BOLD-100 for the indicated times and HSPA5, ATF4 and DDIT3 mRNA levels quantified using RT-PCR. Raw values were normalised to the expression of housekeeping genes ACTB and GAPDH and analysed using the ΔΔCT method. Lower: A. CRC cells were treated with increasing concentrations of BOLD-100 and cell viability determined using CellTitre-Glo® assay. IC50 was calculated using Prism software package. B. CRC cells were treated with BOLD-100 for 48 h. Apoptosis was assessed using Annexin V/propidium iodide (PI) staining by high-content screening. […]

BRAFMT CRC cells [3] = assay: Cell death / caspase 3/7 activity after BOLD-100; format: cell-based
Procedure: as §1
A.: Positive hits for primary siRNA screen against 178 target TSG. sRNA was carried out for 24 h, followed by treatment with BOLD-100 for 48 h. Forty-Six targets were identified, resulting in either increased sensitivity or resistance to BOLD-100 (based on robust z-score ±1). B. Positive hits from secondary siRNA screen using 2 additional siRNA sequences against 46 targets. C. CRC cells were pre-incubated with DMSO or 20 μM of the pan-caspase inhibitor, z-VAD-FMK for 3 h followed by treatment with BOLD-100 for 48 h following which, apoptosis was assessed by WB analyses for PARP (top) and caspase-3/7 activity assay (bottom). […] Apoptosis was assessed by WB analysis for PARP (left) and caspase-3/7 activity (right). […] Apoptosis was determined by WB for PARP (left) and caspase-3/7 activity levels (right).
A. BRAFMT CRC cells were treated with BOLD-100 for the indicated time and ATR/KAP1/CKH1/CHK2 expression/activity measured by WB. B. CRC cells were co-treated with BOLD-100 and AZD6738 for 48 h and phosphorylation/expression of ATR/KAP1 and the downstream kinases measured. […]

BRAFMT CRC cells [4] = assay: ROS-Glo H2O2 assay; format: cell-based
Procedure: as §1
(§2) A. BRAFMT CRC cells were treated with BOLD-100 for the indicated time and ATR/KAP1/CKH1/CHK2 expression/activity measured by WB. B. CRC cells were co-treated with BOLD-100 and AZD6738 for 48 h and phosphorylation/expression of ATR/KAP1 and the downstream kinases measured. C. CRC cells were treated with BOLD-100 for the indicated times and generation of ROS measured using a ROS-Glo™ H2O2 assay. D. and E. WB and caspase 3/7 activity in cells pre-treated with NAC for 3 h followed by treatment with BOLD-100 for an additional 24h.

Degradation in water = format: physicochemical
Procedure: One skilled in the art will recognize that limiting this degradation reaction would be advantageous to obtaining the highest purity product. […] In one aspect of the invention, the sodium trans-[tetrachlorobis(1H-indazole)ruthenate (III)] solution is cooled to 4° C. during the formulation process. In another aspect of the invention, the sodium trans-[tetrachlorobis(1H-indazole)ruthenate (III)] solution is cooled to 2-8° C. during the formulation process. In another aspect of the invention, the sodium trans-[tetrachlorobis(1H-indazole)ruthenate (III)] solution is cooled to 2-15° C. during the formulation process.

[5] = system: pATR^T1989, pChk1^S345 and γH2AX; assay: Western blotting of ATR/CHK1 DNA damage signalling; format: cell-based
Procedure: as §1, §2

GRP78, CHOP = assay: Western blotting of UPR markers after BOLD-100; format: cell-based; conditions: treatment with BOLD-100
Procedure: as §1
As illustrated in FIG. 2. BRAFMT, CMS1 CRC cells show increased sensitivity to treatment with BOLD-100. Upper: A. BRAFMT V600E HT-29 cells were treated with BOLD-100 for the indicated time and GRP78, CHOP and PARP levels determined by Western blotting (WB). B. HT-29 cells were treated with BOLD-100 for the indicated times and HSPA5, ATF4 and DDIT3 mRNA levels quantified using RT-PCR. Raw values were normalised to the expression of housekeeping genes ACTB and GAPDH and analysed using the ΔΔCT method. Lower: A. CRC cells were treated with increasing concentrations of BOLD-100 and cell viability determined using CellTitre-Glo® assay. IC50 was calculated using Prism software package. B. CRC cells were treated with BOLD-100 for 48 h. Apoptosis was assessed using Annexin V/propidium iodide (PI) staining by high-content screening. The graph indicates the percentage of positive stained cells following treatment with 100 μM BOLD-100. Mean of 3 independent experiments is shown.

C[C@@H]1COCCN1c1cc(C2([S@](C)(=N)=O)CC2)nc(-c2cc[nH]c3nccc2-3)n1 [AZD6738]
interaction when combined with BOLD-100 (BRAFMT CRC cells [1]): strong synergy
cell death following BOLD-100 treatment (BRAFMT CRC cells [2]): increase cell death
apoptosis when combined with BOLD-100 (BRAFMT CRC cells [2]): apoptosis

[Cl][Ru]([Cl])([Cl])[Cl].[Na+].c1ccc2[nH]ncc2c1.c1ccc2[nH]ncc2c1 [BOLD-100, Sodium trans-[tetrachloridobis(1H-indazole)ruthenate(III)]]
IC50 (BRAFMT, MSS CRC cells): 9.25 to 31 µM
type of cell death (BRAFMT CRC cells [3]): caspase-8 dependent cell death
ROS (BRAFMT CRC cells [4]): acute increases in ROS
stability in water (Degradation in water): can degrade in water to Compound A
pATR^T1989, pChk1^S345 and γH2AX expression levels ([5]; BRAFMT cells): rapid and potent increases
GRP78 levels (GRP78, CHOP): early decreases
expression levels of the endoplasmic reticulum stress protein CHOP (GRP78, CHOP): increases

CNCc1ccc(-c2cc(-c3nc(-c4ccc(S(=O)(=O)C(C)C)cc4)cnc3N)on2)cc1 [Berzosertib]
cell death following BOLD-100 treatment (BRAFMT CRC cells [2]): increase cell death

Nc1nn2cc(F)cnc2c1C(=O)Nc1cncc(F)c1N1CCC(C(=O)N2CCN(C3COC3)CC2)CC1 [M4344]
interaction when combined with BOLD-100 (BRAFMT CRC cells [1]): strong synergy
cell death following BOLD-100 treatment (BRAFMT CRC cells [2]): increase cell death
apoptosis when combined with BOLD-100 (BRAFMT CRC cells [2]): apoptosis

CC(=O)N[C@@H](CS)C(=O)O [NAC]
effect on cell death following BOLD-100 treatment (BRAFMT CRC cells [3]; ROS scavenger): rescued cell death
effect on BOLD-100 induced CHOP, pATR^T1989, pChk1^S345 and γH2AX levels ([5]; ROS scavenger, BRAFMT CRC cells): abrogated
